What was measured:
M71 OR [1] = target: T1, M71 OR (Mus musculus, UniProt Q60893); experiment: In vivo synaptophluorin (SpH) imaging of odor-evoked glomerular activity in 4•M71Cα mice; settings: for efficacy [(dF/F)max]: 0.44 uM
T1 construct: the increase of OSNs expressing the M71 OR results in the coalescence of labeled axons; expressed in transfected cells; host or cells: olfactory sensory neurons of living transgenic mice (4•M71Cα, 5•M71Cα), made by pronuclear injection of the M71 minigene
T1 sequence (Q60893 1-309): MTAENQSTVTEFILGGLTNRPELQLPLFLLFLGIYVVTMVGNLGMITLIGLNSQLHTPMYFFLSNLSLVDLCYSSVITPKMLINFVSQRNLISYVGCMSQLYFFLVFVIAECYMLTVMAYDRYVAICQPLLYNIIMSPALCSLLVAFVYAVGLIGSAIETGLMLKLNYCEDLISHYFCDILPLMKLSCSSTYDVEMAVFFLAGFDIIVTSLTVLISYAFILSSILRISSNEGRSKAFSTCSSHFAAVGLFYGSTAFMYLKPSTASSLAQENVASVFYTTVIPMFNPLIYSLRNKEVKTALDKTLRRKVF
Text: Because the M71 OR is dorsally expressed in the olfactory bulb, any cloned OR using the M71 transgenic backbone will coalesce its axons onto dorsally located glomeruli, which makes them accessible for optical imaging. Optical imaging was therefore used to functionally characterize transgenic M71 projections in the OB. To examine their functional properties odor-evoked activity was imaged from the OBs of mice expressing the genetically encoded activity reporter SpH in all mature OSNs. Simultaneously recordings were obtained from mice that are either hemizygous or homozygous for 4•M71Cα (gene-targeted M71-GFP is out crossed) and heterozygous for SpH and identify red M71 glomeruli. Seven different M71-selective ligands were used from ex vivo analysis of genetically defined M71 OSNs in gene-targeted mice: three of these ligands produced responses by SpH imaging: Acetophenone (ACP), 4-methyl acetophenone (4MACP) and 2,4-dimethyl acetophenone (24dMACP) when delivered at different odor dilutions varying between 0% and 15%. The maximum change in fluorescence [(dF/F)max] per odor concentration was calculated for each compound over a 14 s trial period having a pre-odor (3 s), odor (4 s) and post-odor (4 s) acquisition. dF/F values for all glomeruli were calculated with a standardized 50 μm window, which is fully contained in all imaged glomeruli of both hemi and homo 4•M71Cα animals. (FIG. 2A, FIG. 2B and FIG. 2C: Each data point represents the average (dF/F). of 4-16 glomeruli imaged). […] All imaged mice are heterozygous for omp-SpH.
Olfactometry: Odors (purchased form Sigma Aldrich) were delivered using a custom built olfactometer controlled by an Arduino board with custom shields operating Teflon solenoids (Neptune Research) and connected to two Mass Flow Controllers (Alicat Scientific, Inc) to dilute the clean air (N2, max flow is 2 Lpm) and to dilute the odorized air (max flow is 300 SCCM). Nitrogen (N2) was used as the vapor carrier to avoid oxidation. Odor concentrations are expressed a % dilutions of saturated vapor and as molar saturated vapor concentration (μM s.v.), calculated using published vapor pressures at 25° Celsius (US EPA, Estimation Programs Interface Suite, v 4.0. Flow diluted odors were delivered at 2 Lpm mixed prior to the delivery site with air odorized with varying dilutions of odorant taken from the saturated headspace of pre-cleaned amber vials with white polypropylene closures and septum (J. G. Finneran) containing 99% pure odorants. To avoid contamination of the olfactometer, odorized air was never passed through the Teflon valves. Instead, odors were mixed with N2 in T-shaped mixing chambers (Neptune Research) and delivered to the animal's nose using an arduino controlled vacuum system. […] Output of the olfactometer was calibrated using the tracer odor Pinene and a photoionization detector (PID; Aurora Scientific).
In vivo SpH Imaging: Mice were anesthetized using Ketamine (100 mg/kg)/Xylazin (5 mg/kg) and maintained with Isoflurane (2.5% in 02) and immobilized using a stereotactic head holding device (Narishige, Inc.). Optical signals for SpH and mCherry were recorded using an ANDOR Neo 5.5 sCMOS camera connected to a NIKON AZ100 epifluorescence microscope (NIS Elements) with a 4× objective (numerical aperture 0.4). Excitation wavelengths of 475 nm for SpH and 575 nm for mCherry and emission of 520 nm for SpH and 635 nm for mCherry were used to obtain images of the dorsolateral bulb through thinned skull overlaying the bulb of a freely breathing animal. Each imaging trial consisted of a pre-odor (3 s), odor (4 s) and post-odor (4 s) acquisition, with a total acquisition time per trial of 14 s (including 3 s of valve switch delay). Using serial code, the arduino controlling the olfactometer was integrated in the NIS Elements software, so that the entire image acquisition sequence and flow-diluted odor delivery is controlled by the microscope software. […]

[2] = at 25° C.; cited from earlier work
M71 OR [3] = target: T1, M71 OR; experiment: Two-bottle discrimination behavioral avoidance task (odor detection threshold) with 24dMACP; type: in vivo; settings: naïve, 10^−6 dilution, 24 hr

glomerular activity (in vivo SpH imaging) (M71 OR [1]; 4•M71Cα animals, vapor phase, odor dilutions 0% to 15%): observed
average highest (dF/F)max (M71 OR [1]; hemizygous 4•M71Cα animals, ACP at 1.77 uM, 4MACP at 0.69 uM, 24dMACP at 0.66 uM): 4.15%
efficacy [(dF/F)max] (M71 OR [1]; hemizygous animals): 2.92%
efficacy [average (dF/F)max] (M71 OR [1]; hemizygous animals, delivered at the same concentration, ˜0.70 uM): 4.15%
highest efficacy [(dF/F)max] (M71 OR [1]; homozygous 4•M71Cα animals, ACP at 2.66 uM, 4MACP at 0.69 uM, 24dMACP at 0.46 uM): 4.92%
average efficacy (of all concentrations and odors) (M71 OR [1]; homozygous animals): 4.92%
efficacy [(dF/F)max] (M71 OR [1]; homozygous animals): 4.92%
preference index (PI) for odorized water (M71 OR [3]; unconditioned 4•M71Cα Homo mice): 59%
preference index (PI) for odorized water (M71 OR [3]; unconditioned WT mice): 60%
Structure (SMILES): CC(=O)c1ccc(C)cc1C [24dMACP, 2,4-dimethyl acetophenone]
saturated vapor pressure (Ps) [2]: 0.0811 mmHg

From patent publication US12063914B2, “DNA sequence that increases odorant receptor representation in the olfactory system” (Research Foundation of the City University of New York, priority 2015, dated 2024)
